Test results as given in patent EP4512427A1, “ANTIBODY-DRUG CONJUGATES BASED ON MOLECULAR GLUE DEGRADERS AND USES THEREOF” (Mablink Bioscience, priority 2023, dated 2025).

Key:
CycK mRNA = CycK mRNA by RT-qPCR; type: cell-based, human; details: JIMT-1 cells, 1µM, 2h
Experimental: 1×10^6 JIMT-1 cells were plated in 3mL of DMEM/FBS 90:10 (v/v) in 6-well plates and incubated overnight. Cells were treated with the compound 2384 of the invention, with CR8 (a known molecular glue degrader that depletes CycK) or with the proteasome inhibitor MG-132 (MedChemExpress, Cat HY-13259) for 2h. RNA was extracted using the QIAamp RNeasy Mini Kit (cat#74106, Qiagen) according to the manufacturer's protocol. Reverse transcription was performed using SuperScripr™ IV reverse transcriptase (cat#LT02241, Invitrogen). Quantitative PCR was performed using a No ROX Sybr Master Mix in the LightCycler 480 Real-Time PCR system (Roche Life Science).
Cyclin K forward ([…]) and reverse ([…]) primers were purchased from Eurogentec. Gene expression was normalized using ribosomal 28S as the housekeeping gene.

MDR1 = target: T1, MDR1 (Homo sapiens, UniProt P08183); experiment: MDR1 efflux substrate assay in MDCK-MDR1; type: in vitro ADME; details: dog, MDCK-MDR1, 5µM, 60 min, pH 7.4
T1 construct: host or cells: MDCK-MDR1 (Preadyport)
T1 sequence (P08183 whole entry): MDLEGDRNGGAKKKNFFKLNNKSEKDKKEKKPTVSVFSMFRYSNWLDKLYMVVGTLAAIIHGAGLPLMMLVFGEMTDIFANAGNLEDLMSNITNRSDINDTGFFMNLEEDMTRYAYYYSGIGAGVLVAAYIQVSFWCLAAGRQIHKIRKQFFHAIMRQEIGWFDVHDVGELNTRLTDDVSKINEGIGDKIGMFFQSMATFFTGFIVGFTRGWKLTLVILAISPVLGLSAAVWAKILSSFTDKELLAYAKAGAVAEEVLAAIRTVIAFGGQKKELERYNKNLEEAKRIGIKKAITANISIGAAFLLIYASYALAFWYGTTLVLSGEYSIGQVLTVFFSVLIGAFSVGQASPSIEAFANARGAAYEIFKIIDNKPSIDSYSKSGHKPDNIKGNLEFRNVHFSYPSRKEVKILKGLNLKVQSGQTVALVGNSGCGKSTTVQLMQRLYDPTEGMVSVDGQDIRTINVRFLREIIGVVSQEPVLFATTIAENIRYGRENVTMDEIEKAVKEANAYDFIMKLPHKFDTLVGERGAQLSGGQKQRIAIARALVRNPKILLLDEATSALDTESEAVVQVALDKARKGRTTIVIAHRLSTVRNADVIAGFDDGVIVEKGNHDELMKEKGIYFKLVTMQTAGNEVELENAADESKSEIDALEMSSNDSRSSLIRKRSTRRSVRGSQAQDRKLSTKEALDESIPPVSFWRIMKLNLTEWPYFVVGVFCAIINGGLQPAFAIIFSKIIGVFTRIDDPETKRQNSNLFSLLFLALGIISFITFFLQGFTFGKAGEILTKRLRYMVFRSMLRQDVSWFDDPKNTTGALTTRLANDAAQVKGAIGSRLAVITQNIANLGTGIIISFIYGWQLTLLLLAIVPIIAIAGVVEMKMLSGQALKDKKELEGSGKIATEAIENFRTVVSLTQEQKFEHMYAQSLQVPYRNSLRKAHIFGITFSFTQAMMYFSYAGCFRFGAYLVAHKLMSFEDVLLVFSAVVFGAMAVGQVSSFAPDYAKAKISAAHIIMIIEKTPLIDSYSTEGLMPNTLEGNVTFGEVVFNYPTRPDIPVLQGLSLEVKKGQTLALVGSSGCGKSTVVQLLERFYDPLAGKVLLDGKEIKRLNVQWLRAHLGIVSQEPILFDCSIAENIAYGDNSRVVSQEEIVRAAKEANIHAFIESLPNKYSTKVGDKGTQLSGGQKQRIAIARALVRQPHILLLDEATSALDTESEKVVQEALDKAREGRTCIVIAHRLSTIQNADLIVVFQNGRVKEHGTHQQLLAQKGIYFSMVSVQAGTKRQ
Experimental: MDR1 and BCRP efflux substrate assays were conducted in MDCK-MDR1 and MDCK-BCRP in vitro models (Preadyport™, Solvo Biotech) at Symeres (Nederland). Compound of the invention (donor well concentration of 5µM) were incubated in cell monolayer 24-transwell Preadyport system, using Preadyport recommended pH 7.4 assay buffer (donor and receiver wells). After 60 min of incubation (no shaking), samples are collected and suspended into triple volume of 66% cold acetonitrile. Samples are stored at -20°C until thawed, centrifuged and analyzed by LC-MS. Quinidine was used a positive control for the MDR1 assay, and prazosin was used as a positive control for the BCRP assay. Exatecan was used as a control, known not to be an MDR1 substrate. Residual DMSO content from compounds stock solutions was below 1% (v/v). The assay was performed in duplicate. The quantification of test compounds in donor or receptor compartment is conducted using relative LC/MS peak areas (samples of initial incubation solutions are used as a single point calibrator), without any spiked standard samples. The data is used for estimating apparent permeability (Papp) and calculation of efflux ratio.

JIMT-1 cells = experiment: Cell cycle arrest assessment (propidium iodide); type: cell-based, human; details: 24h at 2, 5, 10, and 50nM
Experimental: 1×10^6 JIMT-1 cells were plated in 3mL of DMEM/FBS 90:10 (v/v) in 6-well plates and incubated overnight. Cells were treated with the compound 2384 of the invention or with CR8 for 24h. Cells were then harvested and washed three times with PBS. Cells were suspended into 300µL of propidium iodide working solution (0.05mg/mL) and incubated for 45 minutes at 4°C in the dark. Analysis was performed using a BD Fortessa flow cytometer controlled by BD FACSDiva software (BD Biosciences) and data were analyzed using FlowJo software (BD Bioscience).

340 protein kinases = experiment: Kinase screening assay (radiometric 33PanQinase); type: biochemical, human; details: 10 µM; most inhibited kinases: CMGC family, particularly CDKs (23 out of the 30 most inhibited were CDK/Cyclin complexes)
Experimental: Compound 2384 according to the disclosure was subjected to kinase screening assays (performed at Reaction Biology, Germany). The screening assay was performed at a final compound concentration of 10 µM. A radiometric protein kinase assay (33PanQinase® ActivityAssay) was used for measuring the kinase activity of 340 protein kinases. All kinase assays were performed in 96-well FlashPlates™ from Perkin Elmer (Boston, MA, USA) in a 50 µL reaction volume. […] All PKC assays (except the PKC-mu and the PKC-nu assay) additionally contained 1 mM CaCl2, 4 mM EDTA, 5 µg/m! Phosphatidylserine and 1 µg/m! 1,2-Dioleyl-glycerol. The CAMK1D, CAMK2A, CAMK2B, CAMK2D, CAMK2G, CAMK4, CAMKK1, CAMKK2, DAPK2, EEF2K, MYLK, MYLK2 and MYLK3 assays additionally contained 1 µg/ml Calmodulin and 0.5 mM CaCl2. The PRKG1 and PRKG2 assays additionally contained 1 µM cGMP. The DNA-PK assay additionally contained 2.5 µg/ml DNA. The protein kinase reaction cocktails were incubated at 30°C for 60 minutes. The reaction was stopped with 50 µl of 2 % (v/v) H3PO4, plates were aspirated and washed two times with 200 µL 0.9 % (w/v) NaCl. Incorporation of 33Pi (counting of "cpm") was determined with a microplate scintillation counter (Microbeta, Wallac). All protein kinase assays were performed with a BeckmanCoulter Biomek 2000/SL robotic system. […]

SMILES: N[C@H]1CC[C@H](Nc2nc(NCc3ccc(-c4ccccn4)cc3)n3ncc(Br)c3n2)CC1 [Compound 2384]
- CycK mRNA level (CycK mRNA): not at the CycK mRNA level
- Papp A→B at 1 h, 5 µM (MDR1; read-out: Papp A (donor) to B (acceptor)): < 0.25 ×10⁻⁶ cm/s
- Papp B→A at 1 h, 5 µM (MDR1; read-out: Papp B (acceptor) to A (donor)): 36.9 ×10⁻⁶ cm/s
- cell cycle analysis (JIMT-1 cells): arrest in the G2/M phase
- inhibition of kinase activity (340 protein kinases): more than 90%
